Structures are written as SMILES. Like-named read-outs stand apart in the source and are kept apart here. Bounds are passed on as bounds.

In data set [1] the test system is MCF-7 cell line. The experiment in a line: MTT anticancer activity assay against MCF-7. The note with it: for IC50: Homo sapiens, MCF7, 48 h, read-out: IC50 on MCF-7 cell line.
Data set [2] concerns the target T1, EGFR (Homo sapiens, UniProt P00533). The experiment in a line: In vitro EGFR kinase inhibitory assay (Kinase-Glo luminescence kit).
Experimental: All samples and controls were tested in triplicate. 5× Kinase assay buffer, ATP and 50× PTK substrate were thawed. The master mixture was constructed (25 µL per well), consequently 25 µL was added to every well. About 5 µL inhibitor solution was added to each well labeled as “Test Inhibitor” while for the “Positive control” and “Blank”, 5 µL of the buffer solution without inhibitor (Inhibitor buffer) was added.
About 3 mL of 1× kinase assay buffer was developed through mixing 600 µL of 5× kinase assay buffer with 2400 µL water. About 20 µL of 1× kinase assay buffer was added to the wells designated as “Blank”. EGFR enzyme was thawed on ice. Consequent to the first thaw, the tube containing enzyme was shortly spun so as to recover full content of the tube. The amount of EGFR required for the assay was calculated then the enzyme was diluted to 1 ng/µL with 1× kinase assay buffer. Reaction was initiated via addition of 20 µL of diluted EGFR enzyme to the wells designated “Positive Control” and “Test Inhibitor Control” then incubation at 30 °C for 40 min. Kinase-Glo Max reagent was thawed. After the 40 min reaction, 50 µL of Kinase-Glo Max reagent was added to each well. Plates were covered with aluminum foil and incubated at room temperature for 15 min. Finally, luminescence was measured using the microplate Robonik P2000 ELISA Reader (India).
Data set [3] concerns the target T2, recombinant human VEGFR-2/KDR (Homo sapiens, UniProt P35968).
T2 construct: purchased #7788
Put plainly: In vitro VEGFR-2 kinase inhibitory assay (ELISA kit). As to conditions: mean of three experiments ± SD. It is filed as biochemical. How it is done:
About 10 µL of 10 mM ATP was added to 1.25 mL 6 µM substrate peptide followed by dilution of the mixture with distilled water to 2.50 mL to make 2× ATP/substrate cocktail ([ATP] = 40 µM, [substrate] = 3 µm). The enzyme was immediately transferred from –80 °C to ice and was allowed to thaw on ice. Microcentrifuge was performed briefly at 4 °C and returned immediately to ice. […] About 0.6 mL of DTT/Kinase buffer was transferred to each enzyme tube to make 4× reaction mixture. […] About 25 µL of 2× ATP/substrate cocktail was added to 25 µL/well pre-incubated reaction mixture/compound. Reaction plate was incubated at room temperature for 30 min. Then, 50 µL/well stop buffer (50 mM EDTA, pH 8) was added to stop the reaction. […] About 100 µL/well primary antibody was added and incubated at room temperature for 60 min followed by washing three times with 200 µL/well PBS/T.
Appropriate dilution of HRP labeled secondary antibody in PBS/T was prepared with 1% BSA (1:500 dilution for anti-mouse IgG or 1:1000 for anti-rabbit IgG). About 100 µL/well secondary antibody solution was added and incubated at room temperature for 30 min then washed five times with 200 µL/well PBS/T followed by addition of 100 µL/well 3,3′,5,5′-tetramethylbenzidine (TMB) substrate and incubation at room temperature for 15 min and finally addition of 100 µL/well of stop solution and mix well. The absorbance was read at 450 nm with a microtiter plate reader. The values of % activity versus a series of compound concentrations (0.01 µM–0.1 µM–1 µM–10 µM) was then plotted using non-linear regression analysis of sigmoidal dose-response curve.

The test system of data set [4] is MCF-10A (the human mammary epithelial cell line). Put plainly: MTT cytotoxicity on normal mammary epithelial cell line. The note with it: for IC50: Homo sapiens, MCF-10A, read-out: IC50 on normal mammary epithelial cell line (MCF-10A); for Selectivity index: MCF-10A versus MCF-7 tumor cell line.
Data set [5] deals with MCF-7 cells. The experiment in a line: Cell cycle analysis, propidium iodide flow cytometry. It is filed as cell-based, human. The note with it: 24 h. How it is done:
Cell cycle were carried out using propidium iodide flow cytometry kit (Abcam, ab139418) according to the manufacturer’s instructions. The MCF-7 cells were treated with 0.66 µM of compound 5f for 24 h. Then, the cells were washed twice with ice-cold PBS, centrifuged and fixed using ice-cold 66% (v/v) ethanol, washed with PBS, re-suspended with 0.1 mg/mL RNase and stained with 200 µL propidium iodide (PI). Finally, cells were analyzed by flow cytometry. The cell cycle distributions were calculated using Cell-Quest software (Becton Dickinson). An interference with the normal cell cycle distribution resulted upon exposure of MCF-7 cells to this compound as indicated.
(Flow cytometry measures light scatter and fluorescence of single cells or particles in a stream.)

In data set [6] the test system is MCF-7 cells. The experiment in a line: Annexin V-FITC/PI apoptosis detection. The note with it: MCF-7, 0.66 µM, 24 h. It is filed as cell-based, human. The procedure: Apoptosis was evaluated utilizing Annexin V-FITC/PI apoptosis detection kit (Biovision, Mountain View, CA #K101-25) according to the manufacturer’s instructions after staining the cells with Annexin V fluorescein isothiocyanate (FITC) and counterstaining with propidium iodide (PI).
The cells then were centrifuged and in case of adherent cells, cells were gently trypsinized and washed once with serum-containing media followed by resuspension in 500 µL of binding buffer. About 5 µL of Annexin V-FITC and 5 µL of (PI […]) were added and incubated at room temperature for 5 min in the dark. Analyses were carried out using flow cytometer (Ex = 488 nm; Em = 530 nm) using FITC signal detector (usually FL1) and PI staining by the phycoerythrin emission signal detector (usually FL2).

For data set [7], the target named is T1, EGFR. The note with it: Figure 1 compounds I–VII; cited from earlier work.
The subject of data set [8] is VEGFR-2. As to conditions: Figure 1 compounds I–VII; cited from earlier work.

T2 sequence (P35968 20-1356): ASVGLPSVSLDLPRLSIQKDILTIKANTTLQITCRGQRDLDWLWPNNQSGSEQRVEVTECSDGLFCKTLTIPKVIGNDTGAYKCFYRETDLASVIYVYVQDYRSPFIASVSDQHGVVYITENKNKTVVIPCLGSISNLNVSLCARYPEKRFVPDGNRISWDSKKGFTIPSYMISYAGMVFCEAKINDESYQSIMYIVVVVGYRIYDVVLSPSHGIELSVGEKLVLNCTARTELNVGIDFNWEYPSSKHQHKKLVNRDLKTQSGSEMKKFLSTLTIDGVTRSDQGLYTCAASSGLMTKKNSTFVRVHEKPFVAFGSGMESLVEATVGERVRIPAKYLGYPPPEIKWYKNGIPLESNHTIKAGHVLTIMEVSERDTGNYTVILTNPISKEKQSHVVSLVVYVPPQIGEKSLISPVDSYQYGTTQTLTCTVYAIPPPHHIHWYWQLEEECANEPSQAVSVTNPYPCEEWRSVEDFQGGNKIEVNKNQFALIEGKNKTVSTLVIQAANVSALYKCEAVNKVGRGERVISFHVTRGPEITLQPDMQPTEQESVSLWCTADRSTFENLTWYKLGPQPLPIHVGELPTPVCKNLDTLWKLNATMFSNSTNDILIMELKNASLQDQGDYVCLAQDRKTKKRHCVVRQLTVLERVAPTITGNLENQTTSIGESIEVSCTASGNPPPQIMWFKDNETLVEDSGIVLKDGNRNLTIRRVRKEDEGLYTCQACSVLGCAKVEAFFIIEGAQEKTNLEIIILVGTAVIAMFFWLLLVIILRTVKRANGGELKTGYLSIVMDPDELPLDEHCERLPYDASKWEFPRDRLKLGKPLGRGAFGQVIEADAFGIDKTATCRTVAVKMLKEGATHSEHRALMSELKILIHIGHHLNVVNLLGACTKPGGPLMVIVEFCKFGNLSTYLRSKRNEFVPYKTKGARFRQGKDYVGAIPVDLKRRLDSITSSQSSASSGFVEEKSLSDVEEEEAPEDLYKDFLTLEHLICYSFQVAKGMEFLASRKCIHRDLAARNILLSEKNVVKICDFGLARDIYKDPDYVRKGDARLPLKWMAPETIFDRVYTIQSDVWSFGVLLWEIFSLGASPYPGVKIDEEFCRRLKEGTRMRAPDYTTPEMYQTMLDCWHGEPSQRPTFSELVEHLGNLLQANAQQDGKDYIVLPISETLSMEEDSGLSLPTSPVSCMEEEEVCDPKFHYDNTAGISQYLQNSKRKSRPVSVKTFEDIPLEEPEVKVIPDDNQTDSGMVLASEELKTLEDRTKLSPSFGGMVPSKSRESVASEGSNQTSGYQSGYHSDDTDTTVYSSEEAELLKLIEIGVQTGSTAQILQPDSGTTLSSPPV
T1 sequence (P00533 25-1210): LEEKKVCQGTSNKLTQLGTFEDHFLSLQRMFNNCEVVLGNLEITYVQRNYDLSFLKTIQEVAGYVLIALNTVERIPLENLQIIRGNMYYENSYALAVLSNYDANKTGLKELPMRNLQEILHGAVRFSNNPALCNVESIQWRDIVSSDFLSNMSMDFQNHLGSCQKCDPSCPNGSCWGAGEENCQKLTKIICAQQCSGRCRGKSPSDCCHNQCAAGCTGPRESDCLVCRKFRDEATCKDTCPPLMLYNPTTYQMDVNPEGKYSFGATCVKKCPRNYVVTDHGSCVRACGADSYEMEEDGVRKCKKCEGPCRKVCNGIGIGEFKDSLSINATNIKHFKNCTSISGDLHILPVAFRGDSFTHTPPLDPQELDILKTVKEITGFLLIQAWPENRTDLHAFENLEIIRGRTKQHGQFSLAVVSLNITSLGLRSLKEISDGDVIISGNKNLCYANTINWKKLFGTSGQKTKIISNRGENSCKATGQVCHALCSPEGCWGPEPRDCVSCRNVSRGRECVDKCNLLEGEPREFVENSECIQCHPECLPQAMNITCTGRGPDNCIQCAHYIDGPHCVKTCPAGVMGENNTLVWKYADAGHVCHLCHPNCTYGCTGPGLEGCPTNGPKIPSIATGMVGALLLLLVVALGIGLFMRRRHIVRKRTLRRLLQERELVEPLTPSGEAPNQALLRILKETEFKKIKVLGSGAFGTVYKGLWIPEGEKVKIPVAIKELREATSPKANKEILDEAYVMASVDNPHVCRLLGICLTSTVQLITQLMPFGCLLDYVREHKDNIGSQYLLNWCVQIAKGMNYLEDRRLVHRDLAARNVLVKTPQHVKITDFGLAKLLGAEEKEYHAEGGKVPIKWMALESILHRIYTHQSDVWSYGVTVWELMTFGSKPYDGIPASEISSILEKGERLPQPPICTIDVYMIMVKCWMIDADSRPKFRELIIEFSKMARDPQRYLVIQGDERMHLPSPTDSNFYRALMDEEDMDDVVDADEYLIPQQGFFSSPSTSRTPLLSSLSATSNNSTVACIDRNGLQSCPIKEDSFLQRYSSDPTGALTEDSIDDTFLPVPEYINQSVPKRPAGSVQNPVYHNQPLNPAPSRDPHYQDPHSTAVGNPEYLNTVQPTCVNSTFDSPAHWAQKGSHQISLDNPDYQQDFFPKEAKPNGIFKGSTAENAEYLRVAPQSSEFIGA

For the compound `NS(=O)(=O)c1ccc(Nc2ncnc3sc4c(c23)CCCCC4)cc1` [Compound 4a, 4-((6,7,8,9-Tetrahydro-5H-cyclohepta[4,5]thieno[2,3-d]pyrimidin-4-yl)amino)benzenesulfonamide], the melting point (in general, the temperature of the solid-liquid transition) lay in the range of 271 to 272 °C. Moreover, in [1], the IC50 (usually the midpoint of a concentration-inhibition curve) is 39800 ± 4110 nM.

`O=S(=O)(Nc1ncccn1)c1ccc(Nc2ncnc3sc4c(c23)CCCCC4)cc1` [Compound 4b, N-(Pyrimidin-2-yl)-4-((6,7,8,9-tetrahydro-5H-cyclohepta[4,5]thieno[2,3-d]pyrimidin-4-yl)amino)benzenesulfonamide] returned a melting point of 243 to 245 °C. Besides, the IC50 in data set [1] is 7120 ± 550 nM.

In the case of `Cc1ccnc(NS(=O)(=O)c2ccc(Nc3ncnc4sc5c(c34)CCCCC5)cc2)n1` [Compound 4c, N-(4-Methylpyrimidin-2-yl)-4-((6,7,8,9-tetrahydro-5H-cyclohepta[4,5]thieno[2,3-d]pyrimidin-4-yl)amino)benzenesulfonamide], the melting point is 260 to 262 °C. In addition, the IC50 in [1] is 11000 ± 1240 nM.

`Nc1cccc(Oc2ncnc3sc4c(c23)CCCCC4)c1` [Compound 5a, 3-((6,7,8,9-Tetrahydro-5H-cyclohepta[4,5]thieno[2,3-d]pyrimidin-4-yl)oxy)aniline] had a melting point of 179 to 180 °C. Also, half-maximal inhibition in [2] (IC50) was put at 70 ± 3 nM. For the same compound, the IC50 in data set [1] came to 1980 ± 210 nM. The IC50 in data set [3] was determined as 1710 ± 62 nM.

In turn, `Nc1ccc(Oc2ncnc3sc4c(c23)CCCCC4)cc1` [Compound 5b, 4-((6,7,8,9-Tetrahydro-5H-cyclohepta[4,5]thieno[2,3-d]pyrimidin-4-yl)oxy)aniline] came in with a melting point above 300 °C. In addition, in data set [2], the IC50 worked out at 42 ± 2 nM and the “folds more potent than lapatinib, EGFR inhibitory activity” value amounted to 1.24 folds. In [4], the IC50 stood at 72700 ± 3980 nM and the Selectivity index was determined as 49.5. Further, the IC50 in data set [1] was determined as 1470 ± 110 nM. The IC50 in data set [3] turned out to be 510 ± 16 nM.

The compound `Brc1ccc(Oc2ncnc3sc4c(c23)CCCCC4)cc1` [Compound 5c, 4-(4-Bromophenoxy)-6,7,8,9-tetrahydro-5H-cyclohepta[4,5]thieno[2,3-d]pyrimidine] showed a melting point of 135 to 136 °C. Moreover, the IC50 in data set [1] was 6650 ± 410 nM.

For the compound `Clc1ccccc1Oc1ncnc2sc3c(c12)CCCCC3` [Compound 5d, 4-(2-Chlorophenoxy)-6,7,8,9-tetrahydro-5H-cyclohepta[4,5]thieno[2,3-d]pyrimidine], the melting point was above 300 °C. Also, the IC50 in data set [2] came out at 70 ± 4 nM. Also, in [1], the IC50 is 1340 ± 70 nM. Moreover, in data set [3], the IC50 was 740 ± 25 nM.

For `Clc1ccc(Oc2ncnc3sc4c(c23)CCCCC4)cc1` [Compound 5e, 4-(4-Chlorophenoxy)-6,7,8,9-tetrahydro-5H-cyclohepta[4,5]thieno[2,3-d]pyrimidine], the melting point was 115 to 116 °C. This compound also had an IC50 in [2] of 69 ± 3 nM. Besides, the IC50 in [1] was determined as 2760 ± 330 nM. Further, the IC50 in data set [3] is 340 ± 13 nM.

For the compound `Cc1cc(Oc2ncnc3sc4c(c23)CCCCC4)ccc1Cl` [Compound 5f, 4-(4-Chloro-3-methylphenoxy)-6,7,8,9-tetrahydro-5H-cyclohepta[4,5]thieno[2,3-d]pyrimidine], in [2], the IC50 was 28 ± 3 nM and the “folds more potent than erlotinib, EGFR inhibitory activity” value worked out at 1.18 folds. Besides, in data set [5] (MCF-7, 0.66 µM), the “%G0–G1” value stood at 34.19%, the “%G2/M” value is 32.65%, the “%Pre-G1” value turned out to be 17.58% and the “%S” value is 33.16%. Further, in data set [5] (MCF-7, IC50 concentration), the “increase in percentage of cells at G2/M phase compared to control” value was 4.75 folds and the “increase in percentage of cells at pre-G1 phase compared to control” value came out at 11.80 folds. Further, in data set [6], the “Apoptosis %Total” value stood at 17.58%, the “increase in annexin-V positive cells (early apoptosis) more than control” value came to 6.07 folds, the “increase in late apoptotic cells more than control” value is recorded as “about 24.66 folds” and the “increase in necrotic cells more than control” value is listed as around 12.48 folds. In [6] (lower right quadrant), the “Apoptosis %Early” value is given as 5.34%. The compound further showed a Necrosis in data set [6] (upper left quadrant) of 2.87%. Besides, the “Apoptosis %Late” value in data set [6] (upper right quadrant) is 9.37%. For the same compound, in [4], the IC50 was 153000 ± 7570 nM and the Selectivity index was 232.1. Moreover, in data set [1], the IC50 was found to be 660 ± 50 nM. Besides, in [1] (MCF-7), the “folds more potent than doxorubicin, anticancer activity” value was determined as 4.64 folds and the “folds more potent than erlotinib, anticancer activity” value amounted to 1.73 folds. In data set [3], the IC50 is 1230 ± 28 nM.

Take `Fc1ccc(Oc2ncnc3sc4c(c23)CCCCC4)cc1` [Compound 5g, 4-(4-Fluorophenoxy)-6,7,8,9-tetrahydro-5H-cyclohepta[4,5]thieno[2,3-d]pyrimidine]: the melting point was above 300 °C. Moreover, in data set [2], 200 ± 11 nM corresponded to half-maximal inhibition (IC50). Further, in data set [1], the IC50 came out at 1230 ± 40 nM.

`Cc1ccccc1Oc1ncnc2sc3c(c12)CCCCC3` [Compound 5h, 4-(o-Tolyloxy)-6,7,8,9-tetrahydro-5H-cyclohepta[4,5]thieno[2,3-d]pyrimidine] gave a melting point above 300 °C. Also, the IC50 in data set [1] is 87400 ± 5400 nM.

As to `Cc1ccc(Oc2ncnc3sc4c(c23)CCCCC4)cc1` [Compound 5i, 4-(p-Tolyloxy)-6,7,8,9-tetrahydro-5H-cyclohepta[4,5]thieno[2,3-d]pyrimidine], the melting point is above 300 °C. Besides, the IC50 in data set [1] is 21100 ± 2700 nM.

The compound `COc1ccc(Oc2ncnc3sc4c(c23)CCCCC4)cc1` [Compound 5j, 4-(4-Methoxyphenoxy)-6,7,8,9-tetrahydro-5H-cyclohepta[4,5]thieno[2,3-d]pyrimidine] displayed a melting point above 300 °C. The IC50 in data set [1] is 5010 ± 310 nM.

As to `O=[N+]([O-])c1ccc(Oc2ncnc3sc4c(c23)CCCCC4)cc1` [Compound 5k, 4-(4-Nitrophenoxy)-6,7,8,9-tetrahydro-5H-cyclohepta[4,5]thieno[2,3-d]pyrimidine], the melting point lay within 166 to 169 °C. This compound also came in with an IC50 in data set [2] of 460 ± 18 nM. The IC50 in data set [1] turned out to be 2760 ± 190 nM.

With `COc1cccc2c1C(=O)c1c(O)c3c(c(O)c1C2=O)C[C@@](O)(C(=O)CO)C[C@@H]3O[C@H]1C[C@H](N)[C@H](O)[C@H](C)O1` [Doxorubicin, reference compound], the IC50 in data set [4] is 27600 ± 1550 nM; in [1], 3060 ± 190 nM.

As for `C#Cc1cccc(Nc2ncnc3cc(OCCOC)c(OCCOC)cc23)c1` [Erlotinib, reference compound], the IC50 in data set [4] was found to be 69400 ± 4240 nM; in data set [1], 1140 ± 50 nM.

In the case of `CCOC(=O)Nc1ccc(Nc2ncnc3cc(OC)c(OC)cc23)cc1Cl` [III], the IC50 in [7] was 900 nM.

As to `COC(=O)Nc1ccc(Nc2ncnc3cc(OC)c(OC)cc23)cc1` [II], the IC50 in [8] was 5800 nM.

On to `COc1cc2nc(Cl)nc(Nc3ccc(S(=O)(=O)Nc4nccs4)cc3)c2cc1OC` [IV], for which the half-maximal inhibitory concentration (IC50) in data set [8] is 7790 nM.

Turning to `COc1cc2ncnc(Nc3ccc(Br)cc3F)c2cc1OC` [I], the IC50 in data set [8] was 1650 nM.

Turning to `O=C(Nc1cccc(Br)c1)Nc1ccc(Oc2ncnc3sc4c(c23)CCCC4)cc1Cl` [VII], in data set [8], the IC50 is 15 nM.

With `COc1cc2nc(Cl)nc(Nc3ccc(C(N)=O)cc3)c2cc1OC` [VI], in data set [8], the IC50 is 1170 nM.

Take `COc1cc2nc(Cl)nc(Nc3ccc(S(N)(=O)=O)cc3)c2cc1OC` [V]: the IC50 in data set [8] was 1020 nM.
